Source: patent US8785488B2 (Exelixis Patent Company LLC, priority 2009, dated 2014)

The molecules below were run against T1, human TGR5 (h-TGR5) (Homo sapiens, UniProt Q8TDU6) (assay: TGR5/CRE-Luciferiase Assay (HEK 293 hTGR5/CRE-Luc cells)). Conditions: h-TGR5 CRE-Luc EC50, Table 1; read-out: CRE-Luc (EC50).
T1 construct: expressed in transfected cells
T1 sequence (Q8TDU6 1-330): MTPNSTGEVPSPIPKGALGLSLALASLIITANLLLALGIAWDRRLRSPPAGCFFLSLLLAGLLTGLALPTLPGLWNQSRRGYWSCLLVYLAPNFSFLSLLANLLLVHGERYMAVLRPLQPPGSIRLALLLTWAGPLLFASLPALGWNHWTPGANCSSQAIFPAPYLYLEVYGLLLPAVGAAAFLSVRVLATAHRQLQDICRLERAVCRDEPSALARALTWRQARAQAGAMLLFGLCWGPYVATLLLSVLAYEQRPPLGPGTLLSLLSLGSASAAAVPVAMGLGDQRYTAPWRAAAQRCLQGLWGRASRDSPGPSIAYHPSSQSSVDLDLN
Format: cell-based
How it was run: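 HEK293 cells stably carrying hTGR5 and a CRE-luciferase reporter were exposed to serially diluted compounds (diluted in DMEM with 5% DMSO) for 6 h. Cells were then lysed in luciferase buffer, luminescence was read, and EC50 values were derived from dose-response curves.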

EC50 [nM] | Structure (SMILES)
< 100 | COc1ccc(C(C)(C)c2cnc(SCc3c(F)cc(-c4nnn[nH]4)cc3F)n2-c2ccc(F)cc2)cc1Cl [5-[4-({[5-{1-[3-chloro-4-(methyloxy)phenyl]-1-methylethyl}-1-(4-fluorophenyl)-1H-imidazol-2-yl]thio}methyl)-3,5-difluorophenyl]-1H-tetrazole]
100 to 1000 | CC(C)(c1ccc(Cl)c(Cl)c1)c1cnc(SCc2ccc(OCCCO)c(C#N)c2)n1-c1ccc(F)cc1 [5-[({5-[1-(3,4-dichlorophenyl)-1-methylethyl]-1-(4-fluorophenyl)-1H-imidazol-2-yl}thio)methyl]-2-[(3-hydroxypropyl)oxy]benzonitrile]
100 to 1000 | CC(C)(c1ccc(Cl)c(Cl)c1)c1cnc(SCc2ccc(F)c(C(=O)NCC(F)(F)F)c2)n1-c1ccc(F)cc1 [5-[({5-[1-(3,4-dichlorophenyl)-1-methylethyl]-1-(4-fluorophenyl)-1H-imidazol-2-yl}thio)methyl]-2-fluoro-N-(2,2,2-trifluoroethyl)benzamide]
100 to 1000 | CC(C)(O)CNC(=O)c1cc(CSc2ncc(C(C)(C)c3ccc(Cl)c(Cl)c3)n2-c2ccc(F)cc2)ccc1F [5-[({5-[1-(3,4-dichlorophenyl)-1-methylethyl]-1-(4-fluorophenyl)-1H-imidazol-2-yl}thio)methyl]-2-fluoro-N-(2-hydroxy-2-methylpropyl)benzamide]
100 to 1000 | CC(C)(c1ccc(Cl)c(Cl)c1)c1cnc(SCc2ccc(F)c(C(=O)NCCN3CCOCC3)c2)n1-c1ccc(F)cc1 [5-[({5-[1-(3,4-dichlorophenyl)-1-methylethyl]-1-(4-fluorophenyl)-1H-imidazol-2-yl}thio)methyl]-2-fluoro-N-(2-morpholin-4-ylethyl)benzamide]
100 to 1000 | CC(C)(c1ccc(Cl)c(Cl)c1)c1cnc(SCc2ccc(F)c(C(=O)NCCc3c[nH]cn3)c2)n1-c1ccc(F)cc1 [5-[({5-[1-(3,4-dichlorophenyl)-1-methylethyl]-1-(4-fluorophenyl)-1H-imidazol-2-yl}thio)methyl]-2-fluoro-N-[2-(1H-imidazol-4-yl)ethyl]benzamide]
100 to 1000 | COCCNC(=O)c1cc(CSc2ncc(C(C)(C)c3ccc(Cl)c(Cl)c3)n2-c2ccc(F)cc2)ccc1F [5-[({5-[1-(3,4-dichlorophenyl)-1-methylethyl]-1-(4-fluorophenyl)-1H-imidazol-2-yl}thio)methyl]-2-fluoro-N-[2-(methyloxy)ethyl]benzamide]
100 to 1000 | CC(C)(c1ccc(Cl)c(Cl)c1)c1cnc(SCc2ccc(F)c(C#N)c2)n1-c1ccc(F)cc1 [5-[({5-[1-(3,4-dichlorophenyl)-1-methylethyl]-1-(4-fluorophenyl)-1H-imidazol-2-yl}thio)methyl]-2-fluorobenzonitrile]
100 to 1000 | CCN(CC)CCOc1ccc(CSc2ncc(C(C)(C)c3ccc(Cl)c(Cl)c3)n2-c2ccc(F)cc2)cc1S(N)(=O)=O [5-[({5-[1-(3,4-dichlorophenyl)-1-methylethyl]-1-(4-fluorophenyl)-1H-imidazol-2-yl}thio)methyl]-2-{[2-(diethylamino)ethyl]oxy}benzenesulfonamide]
100 to 1000 | CC(C)(c1ccc(F)c(F)c1)c1cnc(SCc2ccc(F)c(C(=O)O)c2)n1-c1ccc(F)cc1 [5-[({5-[1-(3,4-difluorophenyl)-1-methylethyl]-1-(4-fluorophenyl)-1H-imidazol-2-yl}thio)methyl]-2-fluorobenzoic acid]
100 to 1000 | CC(C)(c1ccc(Cl)c(Cl)c1)c1cnc(COc2ccc(Cl)cn2)n1-c1ccc(F)cc1 [5-chloro-2-[({5-[1-(3,4-dichlorophenyl)-1-methylethyl]-1-(4-fluorophenyl)-1H-imidazol-2-yl}methyl)oxy]pyridine]
100 to 1000 | CC(C)(c1ccc(Cl)c(Cl)c1)c1cnc(SCc2ccc(Cl)cc2C(=O)O)n1-c1ccc(F)cc1 [5-chloro-2-[({5-[1-(3,4-dichlorophenyl)-1-methylethyl]-1-(4-fluorophenyl)-1H-imidazol-2-yl}thio)methyl]benzoic acid]
1000 to 10000 | COc1ccc(C(C)(C)c2cnc(C(=O)N3CCCC3)n2-c2ccc(F)cc2)cc1OC [5-{1-[3,4-bis(methyloxy)phenyl]-1-methylethyl}-1-(4-fluorophenyl)-2-(pyrrolidin-1-ylcarbonyl)-1H-imidazole]
< 100 | COc1ccc(C(C)(C)c2cnc(S(=O)(=O)CCc3ccc(F)cc3Cl)n2-c2ccc(F)cc2)cc1OC [5-{1-[3,4-bis(methyloxy)phenyl]-1-methylethyl}-2-{[2-(2-chloro-4-fluorophenyl)ethyl]sulfonyl}-1-(4-fluorophenyl)-1H-imidazole]
< 100 | COc1ccc(C(C)(C)c2cnc(S(=O)(=O)CCc3ccc(Cl)c(Cl)c3)n2-c2ccc(F)cc2)cc1OC [5-{1-[3,4-bis(methyloxy)phenyl]-1-methylethyl}-2-{[2-(3,4-dichlorophenyl)ethyl]sulfonyl}-1-(4-fluorophenyl)-1H-imidazole]
< 100 | COc1ccc(C(C)(C)c2cnc(S(=O)(=O)CCc3ccc(F)c(Cl)c3)n2-c2ccc(F)cc2)cc1OC [5-{1-[3,4-bis(methyloxy)phenyl]-1-methylethyl}-2-{[2-(3-chloro-4-fluorophenyl)ethyl]sulfonyl}-1-(4-fluorophenyl)-1H-imidazole]
< 100 | COc1ccc(C(C)(C)c2cnc(SCc3ccc(Cl)cc3Cl)n2-c2ccc(F)cc2)cc1OC [5-{1-[3,4-bis(methyloxy)phenyl]-1-methylethyl}-2-{[(2,4-dichlorophenyl)methyl]thio}-1-(4-fluorophenyl)-1H-imidazole]
< 100 | COc1ccc(C(C)(C)c2cnc(S(=O)(=O)Cc3c(F)cccc3Cl)n2-c2ccc(F)cc2)cc1OC [5-{1-[3,4-bis(methyloxy)phenyl]-1-methylethyl}-2-{[(2-chloro-6-fluorophenyl)methyl]sulfonyl}-1-(4-fluorophenyl)-1H-imidazole]
1000 to 10000 | COc1ccc(C(C)(C)c2c(-c3ccc(F)cc3)nc(SCc3c(F)cccc3Cl)n2C)cc1OC [5-{1-[3,4-bis(methyloxy)phenyl]-1-methylethyl}-2-{[(2-chloro-6-fluorophenyl)methyl]thio}-4-(4-fluorophenyl)-1-methyl-1H-imidazole]
< 100 | COc1ccc(C(C)(C)c2cnc(SCc3ccc(Cl)c(Cl)c3)n2-c2ccc(F)cc2)cc1OC [5-{1-[3,4-bis(methyloxy)phenyl]-1-methylethyl}-2-{[(3,4-dichlorophenyl)methyl]thio}-1-(4-fluorophenyl)-1H-imidazole]
< 100 | COc1ccc(C(C)(C)c2cnc(SCc3ccc(F)c(Cl)c3)n2-c2ccc(F)cc2)cc1OC [5-{1-[3,4-bis(methyloxy)phenyl]-1-methylethyl}-2-{[(3-chloro-4-fluorophenyl)methyl]thio}-1-(4-fluorophenyl)-1H-imidazole]
1000 to 10000 | COc1ccc(C(C)(C)c2cnc(C(=O)Nc3ccc(F)cc3Cl)n2-c2ccc(F)cc2)cc1OC [5-{1-[3,4-bis(methyloxy)phenyl]-1-methylethyl}-N-(2-chloro-4-fluorophenyl)-1-(4-fluorophenyl)-1H-imidazole-2-carboxamide]
1000 to 10000 | COc1ccc(C(C)(C)c2cnc(C(=O)Nc3c(F)cccc3Cl)n2-c2ccc(F)cc2)cc1OC [5-{1-[3,4-bis(methyloxy)phenyl]-1-methylethyl}-N-(2-chloro-6-fluorophenyl)-1-(4-fluorophenyl)-1H-imidazole-2-carboxamide]
